Measurements reported in ChEMBL document CHEMBL1152512, “The search for potent, small molecule NNRTIs: A review” (Bioorg Med Chem, 2009).

Legend:
[1] = biological target: T1, Human immunodeficiency virus type 1 reverse transcriptase (Human immunodeficiency virus 1, UniProt Q72547); assay: Inhibition of HIV1 reverse transcriptase
[2] = system: Human immunodeficiency virus 1; assay: Antiviral activity against Human immunodeficiency virus 1 infected in human MT4 cells; assay type: functional, organism-based; conditions: Human immunodeficiency virus 1, MT4
[3] = Selectivity index, ratio of human MT4 cytotoxicity to inhibition of HIV1 cytopathicity; assay type: toxicity; conditions: MT4 cells, read-out: Selectivity Index
[4] = system: Human immunodeficiency virus type 1 reverse transcriptase (Human immunodeficiency virus 1), Q72547 [K103N]; assay: Inhibition of HIV reverse transcriptase K103N mutant
[5] = system: Human immunodeficiency virus; assay: Inhibition of wild-type HIV reverse transcriptase
[6] = biological target: T1, Human immunodeficiency virus type 1 reverse transcriptase; assay: Inhibition of wild-type HIV1 reverse transcriptase
[7] = biological target: Human immunodeficiency virus type 1 reverse transcriptase (Human immunodeficiency virus 1, UniProt Q72547, Y181C); assay: Inhibition of HIV1 reverse transcriptase Y181C mutant
[8] = biological target: Human immunodeficiency virus type 1 reverse transcriptase (Human immunodeficiency virus 1, UniProt Q72547, K103N); assay: Inhibition of HIV1 reverse transcriptase K103N mutant
[9] = system: Human immunodeficiency virus 1; assay: Antiviral activity against Human immunodeficiency virus 1 3B; assay type: functional, organism-based

## CCN(CC)CCOc1ccc(NC(=O)COc2ccccc2C(=O)c2ccc(OC)cc2)cc1
[1]
  IC50: 21000 nM

## COc1ccccc1NC(C(N)=O)c1c(Cl)cccc1Cl (stereo not given)
[2]
  EC50: 610 nM
[3]
  selectivity ratio: 10000

## CCC1(c2cccc(OC)c2)Oc2ccccc2-n2cccc2C1=O (stereo not given)
[4]
  INH: 0.022 µM
[5]
  INH: 0.05 µM

## Cc1cc(S(N)(=O)=O)ccc1NC(=O)COc1ccc(Cl)cc1C(=O)c1cc(F)cc(C(F)(F)F)c1
[6]
  IC50: < 2 nM
[7]
  IC50: < 10 nM
[8]
  IC50: < 10 nM

## CC(C)=CCN1Cc2c(Cl)ccc3[nH]c(=S)n(c23)C[C@@H]1C [TIVIRAPINE]
[2]
  EC50: 4.3 nM

## CC(C)=CCOc1cc(NC(=S)c2ccoc2C)ccc1Cl [UC 781]
[9]
  EC50: 15 nM

## C=CCN1Cc2cccc3[nH]c(=O)n(c23)CC1C (stereo not given)
[2]
  EC50: 62000 nM

## CC1=C(C(=O)Nc2ccc(Cl)c(C(=O)OC(C)C)c2)SCCO1
[9]
  EC50: 15 nM

## CC(C)=CCOc1cc(NC(=S)c2ccsc2C)ccc1Cl
[9]
  EC50: 15 nM

## CC(=O)c1ccc(C)cc1NC(C(N)=O)c1c(Cl)cccc1Cl (stereo not given) [LOVIRIDE]
[2]
  EC50: 13 nM
[3]
  selectivity ratio: 10000
